Where two headings read alike, the source gives them in different places.
What was measured:
[1] = Pharmacokinetic study in mouse; format: in vivo, CD-1 mouse
Experimental: Oral and IV doses were administered by oral gavage, or by tail vein injection in a 10% ethanol and 90% saline vehicle, respectively. For PO dosing, samples were taken at 0.167, 0.5, 1, 2, 4, 6 and 24 h p.d. For IV administration, samples were taken at 0.05, 0.167, 0.5, 1, 2, 4, 6 and 24 h p.d. Blood samples were centrifuged at 4° C. (2000 g, 5 minutes) to obtain plasma within 15 minutes after sample collection. The levels of Compound A were quantitated in mouse plasma by LC-MS/MS analysis. […] Typically, samples were injected onto an LC-MS/MS system using a Waters BEH Phenyl column. The aqueous mobile phase was water with 0.1% NH4OH (A), and the organic mobile phase was acetonitrile with 0.1% NH4OH (B). The gradient was as follows: 37% B for the first 0.2 min, increased to 44% B from 0.2 to 0.6 min, maintained at 44% B for 0.5 min, and decreased to 37% B within 0.05 min. The injection volume was 2 uL, and the total run time was 1.5 min with a flow rate of 0.6 mL/min. […] The ionization was conducted in the positive ion mode using the MRM transition [M+H]+m/z 563.5 parent ion to m/z 326.3 daughter ion, incorporating a turbo-ionspray interface. Eight to ten calibration standards were prepared in blank plasma of the relevant species providing a typical standard curve concentration range of 5-500 ng/mL. Pharmacokinetic parameters were calculated by noncompartmental methods using WinNonlin (version 5.3; Pharsight, St. Louis, Mo.). Parameters are presented as mean±S.D.

[2] = Hepatocyte stability, mouse; format: in vitro ADME, CD-1 mouse
Experimental: Human, Beagle dog, Sprague-Dawley rat, and CD-1 mouse cryopreserved hepatocytes were obtained from XenoTech and stored at −150° C. until use. The hepatocytes were thawed and prepared according to the vendor's instructions, pooled into Krebs Henseleit buffer (KHB, pH 7.4), and kept on ice prior to initiating an experiment. […] The reaction mixture was incubated in a shaking water bath at 37° C. Aliquots of the incubation solutions were sampled at 0, 15, 30, 60, and 120 minutes. The reaction was immediately terminated by the addition of three volumes of ice-cold acetonitrile containing 0.1% formic acid and internal standards. After centrifugation at 1640×g for 10 minutes, the supernatants were transferred into HPLC vials, and the test compound was analyzed by LC-MS/MS. Positive controls, testosterone (20 μM) and 7-hydroxycoumarin (100 μM), were performed in parallel to confirm the enzyme activities of the hepatocytes used.
Experimental half-lives were transformed to the corresponding intrinsic clearance values and subsequently scaled to predicted in vivo clearance values, using the well-stirred model as previously described (Houston, Biochemical Pharmacology 47(9): 1469-1479, 1994; Obach, Drug Metabolism and Disposition 27(11): 1350-1359, 1999), with appropriate species-specific scaling factors (Barter et al., Current Drug Metabolism 8(1): 33-45, 2007).

[3] = Plasma protein binding by equilibrium dialysis, rat; format: in vitro ADME; details: male, Sprague-Dawley, pH 7.4, read-out: Plasma free fraction
Experimental: Plasma protein binding was assessed by equilibrium dialysis, utilizing the HT-dialysis cell format with a cellulose semi permeable membrane (molecular weight cut off of 5000 Da). Plasma was warmed to 37° C. and adjusted to pH 7.4 before use. Male Sprague-Dawley rat, male Beagle dog, male CD-1 mouse and mixed sex human plasma was used for the studies. A 5 μM test compound solution was prepared in isotonic phosphate buffer and rat, dog, mouse and human plasma (final DMSO concentration of 0.5%). The plasma-containing solution was introduced to one side of the membrane, and the plasma-free on the other. Incubations were performed for 2-16 hours in duplicate in order to allow the compound to reach equilibrium. Haloperidol was included as the control compound for each species. At the end of the equilibration time the cells were emptied. Following protein precipitation, the samples were centrifuged and analyzed by LC-MS/MS. The samples from the protein containing compartment were quantified using calibration standards prepared in plasma and the protein free compartments were quantified using calibration standards prepared in dialysis buffer.

Plasma stability, dog = format: in vitro ADME; details: Beagle, pooled plasma, 37° C., read-out: Half-life in ex vivo blood plasma
From the text: (§1) Samples were quenched in methanol and analyzed by LC-MS/MS analysis.

Plasma stability, human = format: in vitro ADME; details: pooled plasma, 37° C., read-out: Half-life in ex vivo blood plasma
From the text: as §1

[4] = test system: MDR1-MDCK (P-glycoprotein) cells; assay: MDCK cell permeability, MDR1-transfected cells; format: in vitro ADME, dog; details: from relative efflux ratio, transfected vs native cells
Experimental: (§2) Samples were taken from the donor and receiver chambers at 120 minutes. Each determination was performed in duplicate. Co-dosed lucifer yellow flux was also measured for each monolayer to ensure cell monolayers remained intact during the incubation. All samples were assayed by LC-MS/MS.

P-glycoprotein (MDR1) = assay: MDCK cell permeability, MDR1-transfected cells; format: in vitro ADME, dog; details: dog, 10 uM
Experimental: as §2

[5] = Metabolite profiling in liver microsomes with NADPH and UDPGA, mouse; format: in vitro ADME; details: Compound A 10 μM, 20 min
Experimental: (§3) Compound A was incubated with liver microsomes of various species (mouse, rat, dog or human). […] For all liver microsomal incubations, samples were taken at 0 and 20 minutes. All samples were quenched by using acetonitrile/methanol solution and analyzed using an LC-MS/MS Q-Trap system (AB Sciex, Framingham, Mass.).
(§4) The corresponding product ion tandem mass spectra of Compound A and its metabolites were obtained by using enhanced product ion (EPI) scans during positive ion electrospray. The possible chemical structures of the metabolites were deduced based on their MS1 and MS2 spectra.

[6] = Metabolite profiling in liver microsomes with NADPH and UDPGA, rat; format: in vitro ADME; details: Compound A 10 μM, 20 min
Experimental: as §3, §4

[7] = Metabolite profiling in liver microsomes with NADPH and UDPGA, human; format: in vitro ADME; details: Compound A 10 μM, 20 min
Experimental: as §3, §4

[8] = test system: MLL-rearranged leukemia xenograft; details: cited from earlier work
[9] = male, CD-1, mouse, plasma, iv, 5 mg/kg, IV bolus
[10] = male, plasma, CD-1 mouse, IV bolus, 5 mg/kg
[11] = male, plasma, CD-1 mouse, PO, 20 mg/kg

Q: Which results are given for `CC(C)N(C[C@H]1O[C@@H](n2cnc3c(N)ncnc32)[C@H](O)[C@@H]1O)[C@H]1C[C@@H](CCc2nc3cc(C(C)(C)C)ccc3[nH]2)C1` [Compound A, (2R,3R,4S,5R)-2-(6-amino-9H-purin-9-yl)-5-((((1r,3S)-3-(2-(5-(tert-butyl)-1H-benzo[d]imidazol-2-yl)ethyl)cyclobutyl)(isopropyl)amino)methyl)tetrahydrofuran-3,4-diol]?
A: CL ([1]; CD-1 mouse, IV bolus, 5 mg/kg): 76.7 ± 11.5 mL/min/kg; t1/2 ([1]; CD-1 mouse, IV bolus, 5 mg/kg): 68.4 ± 21 min; F ([1]; CD-1 mouse, PO, 20 mg/kg): <1%; Vd ([1]; male, CD-1, mouse, plasma, iv, 5 mg/kg, CD-1 mouse, IV bolus, 5 mg/kg, read-out: VDss): 1.58 L/kg; clearance [1, 9]: 77 mL/min/kg; half-life [1, 9]: 66 min; Vd ([1]; male, CD-1, mouse, plasma, iv, 5 mg/kg, mouse, read-out: Unbound VDss): 11.4 L/kg; AUC(0-inf) [1, 10]: 1.96 ± 0.3 µM·h; AUC(0-t) [1, 10]: 1.95 ± 0.28 µM·h; Cmax [1, 10]: 7.99 ± 1.9 µM; MRT [1, 10]: 21 ± 3.6 min; Tmax [1, 10]: 3 min; AUC(0-t) [1, 11]: 0.0014 µM·h; Cmax [1, 11]: 0.0019 µM; Tmax [1, 11]: 30 min; oral bioavailability (in words) ([1]; mouse, PO): low and negligible; hepatocyte CLint at 3 μM ([2]; CD-1, mouse, cryopreserved hepatocytes in suspension, pH 7.4, mouse, 3 μM): < 4 µL/min/1e6 cells; Scaled Hepatic CL from hepatocytes ([2]; mouse): 26 mL/min/kg; Hepatocyte CLint ([2]; mouse, 3 μM): 3.5 uL/min/million cells; fraction unbound at 5 μM [3]: 0.272; half-life at 1 μM (Plasma stability, dog): > 120 min; half-life at 1 μM (Plasma stability, human): > 120 min; P-gp substrate (in words) [4]: not a substrate for P-gp; Papp A→B at 120 min, 10 uM (P-glycoprotein (MDR1); MDCK-MDR1, MDCK - MDR1 transfected, Apical-to-basolateral): < 0.1 ×10⁻⁶ cm/s; Papp B→A at 120 min, 10 uM (P-glycoprotein (MDR1); MDCK - MDR1 transfected, Basolateral-to-apical): 0.22 ×10⁻⁶ cm/s; Abundance based on UV spectra [5]: 25.4%; Abundance based on UV spectra [6]: 59.4%; Abundance based on UV spectra [7]: 59%; tumor response ([8]; continuous intravenous (IV) infusion, rat xenograft): complete tumor regressions; weight loss or signs of toxicity ([8]; rat, in vivo, iv): no significant weight loss or signs of toxicity

— patent US20160368943A1, “SUBSTITUTED PURINE COMPOUNDS” (EPIZYME, INC., priority 2013, published 2016)
